The structures appear in SMILES notation.

The target of the first assay is T1, catalytic domain of the recombinant TACE protein (Homo sapiens, UniProt P78536).
T1 construct: The catalytic domain of the recombinant TACE protein was expressed and purified; made in house
T1 sequence (P78536 223-474 limits assumed): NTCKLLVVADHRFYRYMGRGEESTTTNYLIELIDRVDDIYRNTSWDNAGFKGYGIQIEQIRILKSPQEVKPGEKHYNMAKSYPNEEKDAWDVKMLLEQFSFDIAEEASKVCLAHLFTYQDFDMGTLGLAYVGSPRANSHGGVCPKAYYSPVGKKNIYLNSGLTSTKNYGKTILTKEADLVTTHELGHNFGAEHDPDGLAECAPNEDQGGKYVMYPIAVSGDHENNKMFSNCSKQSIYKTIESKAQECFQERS
As to the kind of experiment: TACE FRET assay using TACE cat. Type of assay: biochemical.
Details: not given
As to the method: TACE FRET Assay Using TACE Cat
“K” is the IC50. Generally, “n” and “B” are floated, noting that n (Hill slope) should be close to 1 and B (background offset) to 0.
Pro-TNF-α substrate peptide Abz-[…]-Dpa (AnaSpec, San Jose, Calif., WARC-1) was prepared as a 2 mM stock solution in the TACE assay buffer (50 mM Tris-HCl, pH 7.4, 25 mM NaCl, 4% Glycerol, 0.005% Brij 35). The catalytic domain of the recombinant TACE protein was expressed and purified. The TACE protein (1 ug/ml) was pretreated with the inhibitors at various concentrations for 10 min. at room temperature. The reaction was initiated by the addition of the substrate peptide. […] The initial rate (slope) of the reaction was determined using a fluorescence plate reader (Molecular Devices, Spectra Max Gemini XS).
As to `CC#CCOc1ccc(S(=O)(=O)N[C@@H](Cc2c[nH]c3ccc(O)cc23)C(=O)O)cc1` [Example 5, N-{[4-(but-2-ynyloxy)phenyl]sulfonyl}-5-hydroxytryptophan], the IC50 – broadly, the concentration needed to halve the response being measured – was found to be 1610 nM.

In the case of `CC#CCOc1ccc(S(=O)(=O)N[C@@H](Cc2c(C)n(Cc3ccc(OC)cc3)c3ccc(Cl)cc23)C(=O)O)cc1` [Example 91, N-{[4-(but-2-ynyloxy)phenyl]sulfonyl}-5-chloro-1-(4-methoxybenzyl)-2-methyltryptophan], the IC50 came out at 190 nM.

The same assay, now with this note: read-out: TACE Inhibition (%).
As to `CC#CCOc1ccc(S(=O)(=O)N[C@@H](Cc2c(C)n(Cc3ccc(C(F)(F)F)cc3)c3ccc(OC)cc23)C(=O)O)cc1` [Example 195, N-{[4-(but-2-ynyloxy)phenyl]sulfonyl}-5-methoxy-2-methyl-1-[4-(trifluoromethyl)benzyl]tryptophan], the inhibition (commonly the relative decrease from the control value, in per cent) at 1 µM is 78.3%. Still for that read-out and setting: for `CC#CCOc1ccc(S(=O)(=O)N[C@@H](Cc2cn(Cc3cccc(C)c3)c3ccc(C(=O)O)cc23)C(=O)O)cc1` [Example 105, N-{[4-(but-2-ynyloxy)phenyl]sulfonyl}-5-carboxy-1-(3-methylbenzyl)tryptophan] the value was 11%. The same measure, in the same setting: to `CC#CCOc1ccc(S(=O)(=O)N[C@@H](Cc2c(C)n(Cc3cccc(F)c3)c3ccccc23)C(=O)O)cc1` [Example 153, N-{[4-(but-2-ynyloxy)phenyl]sulfonyl}-1-(3-fluorobenzyl)-2-methyltryptophan] belongs 55.9%; to `CC#CCOc1ccc(S(=O)(=O)N[C@@H](Cc2cn(Cc3ccc(C(F)(F)F)cc3)c3ccc(C(=O)O)cc23)C(=O)O)cc1` [Example 113, N-{[4-(but-2-ynyloxy)phenyl]sulfonyl}-5-carboxy-1-[4-(trifluoromethyl)benzyl]tryptophan], -2.04%. Still for that read-out and setting: to `CC#CCOc1ccc(S(=O)(=O)N[C@@H](Cc2cn(Cc3ccccc3C(F)(F)F)c3ccc(C(=O)O)cc23)C(=O)O)cc1` [Example 111, N-{[4-(but-2-ynyloxy)phenyl]sulfonyl}-5-carboxy-1-[2(trifluoromethyl)benzyl]tryptophan] belongs 10.7%; to `CC#CCOc1ccc(S(=O)(=O)N[C@@H](Cc2cn(Cc3cccc(OC)c3)c3ccc(C(=O)O)cc23)C(=O)O)cc1` [Example 108, N-{[4-(but-2-ynyloxy)phenyl]sulfonyl}-5-carboxy-1-(3-methoxybenzyl)tryptophan], 9.93%. Take `CC#CCOc1ccc(S(=O)(=O)N[C@@H](Cc2cn(Cc3ccc(OC(F)(F)F)cc3)c3ccc(Cl)cc23)C(=O)O)cc1` [Example 78, N-{[4-(but-2-ynyloxy)phenyl]sulfonyl}-5-chloro-1-[4-(trifluoromethoxy)benzyl]tryptophan]: the inhibition at 1 µM was determined as 7.39%.

`CC#CCOc1ccc(S(=O)(=O)N[C@@H](Cc2cn(Cc3ccccc3OC)c3ccc(C#N)cc23)C(=O)O)cc1` [Example 137, N-{[4-(but-2-ynyloxy)phenyl]sulfonyl}-5-cyano-1-(2-methoxybenzyl)tryptophan]: the inhibition at 1 µM is 12.1%.

Consider `CC#CCOc1ccc(S(=O)(=O)N[C@@H](Cc2cn(CC3CCC3)c3ccc(C(=O)O)cc23)C(=O)O)cc1` [Example 131, N-{[4-(but-2-ynyloxy)phenyl]sulfonyl}-5-carboxy-1-(cyclobutylmethyl)tryptophan], for which the inhibition at 1 µM was -1.21%. Still for that read-out and setting: to `CC#CCOc1ccc(S(=O)(=O)N[C@@H](Cc2c(C)n(Cc3ccc(C(C)C)cc3)c3ccc(OC)cc23)C(=O)O)cc1` [Example 202, N-{[4-(but-2-ynyloxy)phenyl]sulfonyl}-1-(4-isopropylbenzyl)-5-methoxy-2-methyltryptophan] belongs 67%.

Turning to `CC#CCOc1ccc(S(=O)(=O)N[C@@H](Cc2cn(Cc3cccc(C)c3)c3ccc(Cl)cc23)C(=O)O)cc1` [Example 73, N-{[4-(but-2-ynyloxy)phenyl]sulfonyl}-5-chloro-1-(3-methylbenzyl)tryptophan], the inhibition at 1 µM was 28%.

Source of the values: patent US7576222B2, “Alkynyl-containing tryptophan derivative inhibitors of TACE/matrix metalloproteinase” (priority 2004, dated 2009).
